Values quoted from earlier work, collected in US20170304196A1, “ORALLY DISINTEGRATING TABLET AND METHOD FOR PRODUCING SAME” (FUJIFILM CORPORATION, priority 2015, published 2017).

Details: anionic substance

Q: Which pKa does the source give for `CCCCCCCCCCCCOS(=O)(=O)[O-].[Na+]` [sodium lauryl sulfate] here?
A: The pKa was 1.9.
